Activity calls are given as the source filed them. No cut-off for these calls is given here.
Columns and labels:
SK-BR-3 [1] = assay: Antiproliferative activity against human SKBR3 cells at 50 uM after 72 hrs by MTT assay; assay type: functional, cell-based
MDA-MB-231 [2] = assay: Antiproliferative activity against human MDA-MB-231 cells at 50 uM after 72 hrs by MTT assay; assay type: functional, cell-based
MCF7 [3] = assay: Antiproliferative activity against human MCF7 cells at 50 uM after 72 hrs by MTT assay; assay type: functional, cell-based
MCF-10A = assay: Cytotoxicity against human MCF10A after 72 hrs by MTT assay; assay type: cell-based
SK-BR-3 [4] = assay: Cytotoxicity against human SKBR3 cells assessed as reduction in cell viability after 72 hrs by MTT assay; assay type: functional, cell-based; conditions: SK-BR-3, 72 h
MCF7 [5] = assay: Cytotoxicity against human MCF7 cells assessed as reduction in cell viability after 72 hrs by MTT assay; assay type: functional, cell-based; conditions: MCF7, 72 h
MDA-MB-231 [6] = assay: cells; conditions: Homo sapiens, MDA-MB-231, 72 h
Description: Cytotoxicity against human MDA-MB-231 cells assessed as reduction in cell viability after 72 hrs by MTT assay

MCF7 [7] = assay: Change in cyclin D1 levels in human MCF7 cells at 1 to 10 uM after 24 hrs by Western blot analysis; assay type: functional, cell-based
MCF7 [8] = assay: Increase in p21waf1/cip1 protein expression in human MCF7 cells at 1 to 10 uM after 24 hrs by immunoblot method; assay type: functional, cell-based
MCF7 [9] = assay: Cell cycle arrest in human MCF7 cells assessed as accumulation at G0/G1 phase at 10 uM after 24 hrs by propidium iodide-staining based FACS analysis (reference value: 71.1%); assay type: functional
MCF7 [10] = assay: Cell cycle arrest in human MCF7 cells assessed as accumulation at G2/M phase at 5 uM after 24 hrs by propidium iodide-staining based FACS analysis (reference value: 6.3%); assay type: functional
MCF7 [11] = assay: Cell cycle arrest in human MCF7 cells assessed as accumulation at G0/G1 phase at 5 uM after 24 hrs by propidium iodide-staining based FACS analysis (reference value: 71.1%); assay type: functional
MCF7 [12] = assay: Cell cycle arrest in human MCF7 cells assessed as accumulation at G2/M phase at 10 uM after 24 hrs by propidium iodide-staining based FACS analysis (reference value: 6.3%); assay type: functional
MCF7 [13] = assay: Cell cycle arrest in human MCF7 cells assessed as accumulation at S phase after 24 hrs by propidium iodide-staining based FACS analysis; assay type: functional
MCF7 [14] = assay: Cell cycle arrest in human MCF7 cells assessed as accumulation at S phase at 10 uM after 24 hrs by propidium iodide-staining based FACS analysis (reference value: 22.6%); assay type: functional
MCF7 [15] = assay: Cell cycle arrest in human MCF7 cells assessed as accumulation at S phase at 5 uM after 24 hrs by propidium iodide-staining based FACS analysis (reference value: 22.6%); assay type: functional
MCF7 [16] = assay: Increase in p53 expression in human MCF7 cells at 1 to 10 uM after 24 hrs by immunoblot method; assay type: functional, cell-based
MCF7 [17] = assay: Induction of apoptosis in human MCF7 cells assessed as increase in cleaved PARP-1 expression at 1 to 10 uM after 24 hrs by immunoblot method; assay type: functional, cell-based

SMILES | Activity (SK-BR-3 [1]) | Activity (MDA-MB-231 [2]) | Activity (MCF7 [3]) | IC50 (MCF-10A) [µM] | IC50 (SK-BR-3 [4]) [µM] | IC50 (MCF7 [5]) [µM] | IC50 (MDA-MB-231 [6]) [µM] | further results
O=c1oc2cccn2c2cc3ccccc3cc12 | Active | Active | Active | – | – | – | – | –
O=c1oc2cccn2c2ccc(-c3ccc(O)cc3)cc12 | – | – | – | 79.8 | 27 | 18.5 | 31 | –
O=c1oc2cccn2c2ccc(-c3ccccc3)cc12 | – | – | – | 180 | 61 | 66.5 | 93.5 | –
COC(=O)c1ccc(-c2ccc3c(c2)c(=O)oc2cccn23)cc1 | – | – | – | 162 | 59.3 | 48.7 | 65 | –
O=c1oc2cccn2c2ccc(-c3cccnc3O)cc12 | – | – | – | 154 | 72 | 60.9 | 78.9 | –
O=c1oc2cccn2c2ccc(-c3ccc(-c4ccccc4)cc3)cc12 | – | – | – | > 250 | 9.2 | 9.03 | 10 | Activity (MCF7 [7]): Active; Activity (MCF7 [8]): Active; Activity (MCF7 [9]): 72.8%; Activity (MCF7 [10]): 7.8%; Activity (MCF7 [11]): 76.6%; Activity (MCF7 [12]): 8.4%; Activity (MCF7 [13]): Dose-dependent effect; Activity (MCF7 [14]): 18.8%; Activity (MCF7 [15]): 15.6%; Activity (MCF7 [16]): Active; Activity (MCF7 [17]): Active
O=c1oc2cccn2c2ncccc12 | Active | Active | Active | – | – | – | – | –
O=c1oc2cccn2c2ccccc12 | Active | Active | Active | – | – | – | – | –
O=c1oc2cccn2c2ccc(-c3ccc(C(F)(F)F)nc3)cc12 | – | – | – | 155 | 46.8 | 43.1 | 73 | –
COc1cccc2c1C(=O)c1c(O)c3c(c(O)c1C2=O)C[C@@](O)(C(=O)CO)C[C@@H]3O[C@H]1C[C@H](N)[C@H](O)[C@H](C)O1 [DOXORUBICIN] | – | – | – | 12.5 | 8.48 | – | 10 | –
O=c1oc2cccn2c2ccc(Br)cc12 | Active | Active | Active | 262 | 126 | 123 | 217 | –

Reference: ChEMBL document CHEMBL4020791, “Synthesis and anti-proliferative activity of a small library of 7-substituted 5H-pyrrole [1,2-a][3,1]benzoxazin-5-one derivatives” (Bioorg Med Chem Lett, 2017)
